From publication PMC9784957 (Viruses, 2022)
Like-named read-outs stand apart in the source and are kept apart here.

Columns and labels:
[1] = target: T1, gp41 hydrophobic pocket (FeII(env2.0)3) (Human immunodeficiency virus type 1 group M subtype B, UniProt P04578); assay: Fluorescence intensity binding affinity assay, displacement of C18FL from FeII; parameters: species or system HIV-1; details: for Increase in affinity for the HP of STP ester compared to acid, change in IC50: ester vs acid
[2] = test system: HXB2 Env mediated cell-cell fusion; assay: Cell-cell fusion assay, HL2/3 effector cells and TZM-bl target cells; format: cell-based, HIV-1; details: for IC50: Human immunodeficiency virus 1, HXB2, read-out: IC50 (CCF); for Potency enhancement against cell-cell fusion upon STP esterification: ester vs acid
[3] = Resazurin cell viability assay run concomitantly with the fusion assays; format: cell-based; details: human, TZM-bl cells, approximated
[4] = test system: HIV-1 HXB2 Env pseudotyped virus; assay: Virus-cell fusion (infectivity) assay, HXB2 Env pseudotyped virus, TZM-bl cells; format: cell-based; details: for EC50 / EC90 / IC50: Human immunodeficiency virus 1, HXB2, TZM-bl; for EC50: read-out: Antiviral Activity EC50; for EC90: read-out: Antiviral Activity EC90; for IC50: read-out: IC50 HXB2
[5] = test system: HXB2 pseudotyped virus; assay: microbe, parasite or virus in culture; format: cell-based, HIV-1; details: for Increase in IC50 (loss of activity) when compound added 2 h after virus: HXB2 pseudotyped virus
[6] = test system: gp41 hydrophobic pocket metallopeptide with Lys-574 replaced with norleucine; format: binding, HIV-1; details: Nle-574 receptor vs Lys-574 receptor
[7] = Aqueous solubility; format: physicochemical
[8] = test system: HIV-1 JRFL Env pseudotyped virus; assay: Virus-cell fusion assay, JRFL Env pseudotyped virus; format: cell-based
[9] = test system: Ampho-MLV Env pseudotyped virus; assay: Virus-cell fusion assay, Ampho-MLV Env pseudotyped virus; format: cell-based
[10] = test system: HIV-1 HXB2 Env pseudotyped virus; parameters: method as in earlier work; details: virus-cell fusion assay using lab adapted strain HXB2; cited from earlier work
[11] = target: T1, gp41 hydrophobic pocket (FeII(env2.0)3); details: equilibrium binding to the HP; cited from earlier work
[12] = test system: HXB2 Env mediated cell-cell fusion; parameters: method as in earlier work; details: cell-cell fusion assay; cited from earlier work
[13] = test system: TZM-bl cells; assay: Resazurin cell viability assay run concomitantly with the fusion assays; format: cell-based; details: at 100 µM, Ampho-MLV Env experiment
[14] = in antiviral assay, read-out: Antiviral Activity CC50
[15] = in cell-cell fusion assay, read-out: Inhibition of Cell-Cell Fusion CC50
[16] = ester vs acid, pseudoviral infectivity

T1 sequence (P04578 565-584): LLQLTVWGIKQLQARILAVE

| SMILES | Ki [1] [µM] | Increase in affinity for the HP of STP ester compared to acid, change in IC50 [1] | CC50 [3, 14] [µM] | CC50 [3, 15] [µM] | EC50 [4] [µM] | EC90 [4] [µM] | Improvement of antiviral activity (EC50) by STP esterification [4, 16] | Increase in IC50 (loss of activity) when compound added 2 h after virus [5] [fold] | other results |
| --- | --- | --- | --- | --- | --- | --- | --- | --- | --- |
| Cn1ncc2ccc(-c3ccc4cnn(Cc5ccc(F)c(C(=O)O)c5)c4c3)cc21 [Compound 2] | 25 ± 5 | 3 fold | ≥ 356 | ≥ 113 | 35 ± 7 | 800 ± 190 | 7 fold | 2 | IC50 [2]: ≥ 50 µM; Potency enhancement against cell-cell fusion upon STP esterification [2]: 7 fold; IC50 [4]: 35 µM |
| COC(=O)c1cccc(Cn2ccc3ccc(-c4ccc5ccn(Cc6cccc(C(=O)Oc7c(F)c(F)c(S(=O)(=O)O)c(F)c7F)c6)c5c4)cc32)c1 [Compound 1-STP] |  |  | 20 ± 3 | > 10 | 0.3 ± 0.2 | 2.9 ± 1.6 | 10 fold | 14 | Increase in KI on replacing Lys-574 with norleucine [6]: 6 fold; EC90 difference, STP ester compared to acid [4, 16]: 14 fold |
| CCOC(=O)c1cc(O)n(-c2ccc(C(=O)O)cc2)n1 [Compound 3] | 177 ± 12 | 10 fold | > 100 | > 100 | > 100 |  | greater than 10 fold |  | IC50 [2]: > 100 µM; IC50 [4]: > 100 µM; IC50 HXB2 ([4]; virus-cell fusion assay using lab adapted strain HXB2): No measurable antiviral potency; Aqueous solubility [7]: high aqueous solubility |
| CCOC(=O)c1cc(O)n(-c2ccc(C(=O)Oc3c(F)c(F)c(S(=O)(=O)O)c(F)c3F)cc2)n1 [Compound 3-STP] | ~20 | 10 fold | > 40 | > 40 | 9 ± 2 | 44 ± 15 | > 10 fold |  | activity at 40 µM ([5]; Human immunodeficiency virus 1, HXB2, 2 h, read-out: Residual activity when added after 2 h): 12%; Reduction in efficacy against JRFL Env compared to HXB2 Env [8]: 4 fold; Activity against Ampho-MLV Env pseudotyped particles [9]: no activity |
| Cc1ccnc2c1NC(=O)c1cccnc1N2C1CC1 [nevirapine, reference compound] |  |  |  |  |  |  |  | 2.7 |  |
| COC(=O)c1cccc(Cn2ccc3ccc(-c4ccc5ccn(Cc6cccc(C(=O)O)c6)c5c4)cc32)c1 [Compound 1] |  | no change | 22 ± 3 | > 10 | 3.2 ± 1.6 | 17 ± 13 | greater than 10 fold | 2 | IC50 [10]: 3000 nM; Potency enhancement against cell-cell fusion upon STP esterification [2]: about 2 fold; Increase in KI on replacing Lys-574 with norleucine [6]: 5 fold; Ki [11]: 1000 ± 500 nM; IC50 [12]: 400 nM |
| c1cc(CN2CCCNCCNCCCNCC2)ccc1CN1CCCNCCNCCCNCC1 [AMD3100, reference compound] |  |  |  |  |  |  |  |  | Residual efficacy when added 2 h after virus ([5]; at 50X EC50): 5% |
| Cn1ncc2ccc(-c3ccc4cnn(Cc5ccc(F)c(C(=O)Oc6c(F)c(F)c(S(=O)(=O)O)c(F)c6F)c5)c4c3)cc21 [Compound 2-STP] | ~10 | 3 fold | ≥ 100 | ≥ 200 | 5 ± 4 | 59 ± 22 | 7 fold | 14 | Increase in IC50 on Nle-574 substitution [6]: 2.2 fold; Cytotoxicity [13]: 40%; Reduction in efficacy against JRFL Env compared to HXB2 Env [8]: 2 fold; Activity against Ampho-MLV Env pseudotyped particles [9]: artifact of the 40% cytotoxicity at 100 µM |
